This note sets out measurements from article PMC5322338 (Scientific Reports, 2017).

The test system of data set [1] is caspase-7. Kind of data set: caspase-7 in caspase buffer, IQF library screening and kinetics. Conditions: human, 37 °C, up to 30 min.
The subject of data set [2] is caspase-3. Briefly: caspase-3 in caspase buffer, IQF library screening and kinetics. Conditions: human, 37 °C, up to 30 min.
The target of data set [3] is T1, Human neutrophil elastase (Homo sapiens, UniProt P08246).
T1 construct: purchased Biocentrum (Krakow, Poland)
T1 sequence (P08246 30-267): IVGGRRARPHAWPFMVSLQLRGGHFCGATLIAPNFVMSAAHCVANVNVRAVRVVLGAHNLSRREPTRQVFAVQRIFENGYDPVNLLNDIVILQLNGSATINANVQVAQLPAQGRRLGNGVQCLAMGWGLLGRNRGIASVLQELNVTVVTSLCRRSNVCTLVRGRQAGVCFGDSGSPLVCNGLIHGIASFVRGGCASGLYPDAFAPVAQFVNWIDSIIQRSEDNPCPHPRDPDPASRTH
Kind of data set: IQF substrate hydrolysis kinetics with neutrophil elastase. Format: biochemical. Conditions: substrate 0.3-5 μM, 0.1 M HEPES, 0.5 M NaCl pH 7.5, 37 °C, mean of at least three, SD <10%. How it is done: (§1) All kinetic measurements were performed using a Spectra Max Gemini XPS spectrofluorimeter (Molecular Devices) at 37 °C. For the substrates with the new donor acceptor pair, ACC/DNP, the excitation wavelength was 355 nm, and the emission wavelength was 460 nm; for MCA/DNP, the corresponding values were 325 and 420 nm, respectively. The substrate concentrations were varied, and the enzyme concentration was kept constant in each assay; the total reaction volume was 100 μl. Measurements were conducted for 30 min, and only the linear part of the progress curve was used to determine the reaction velocity. The measurements were repeated, and the data presented are the average of at least three measurements. The catalytic parameters kcat and KM were established using GraphPad Prism software to directly fit the initial velocities and initial substrate concentrations to the Michaelis-Menten equation using non-linear regression analysis.
Assays with neutrophil elastase were performed in a buffer containing 0.1 M HEPES and 0.5 M NaCl at pH 7.5[9]. The enzyme was incubated in assay buffer for 10 min at 37 °C prior to the substrate addition and the measurement. For elastase, the concentration of substrates containing ACC ranged from 0.3 to 5 μM, and the enzyme concentration was 0.344 nM. The concentration of substrates containing MCA was ranged from 0.3 to 5 μM, and the enzyme concentration was 1.4 nM.

The test system of data set [4] is caspase-9. Kind of data set: caspase-9 in caspase buffer supplemented with 1.0 M sodium citrate, IQF library screening and kinetics. Conditions: human, 37 °C, up to 30 min.
The subject of data set [5] is caspase-8. Briefly: caspase-8 in caspase buffer supplemented with 1.0 M sodium citrate, IQF library screening and kinetics. Conditions: human, 37 °C, up to 30 min.
For data set [6], the system named is caspase-10. Kind of data set: caspase-10 in caspase buffer supplemented with 1.0 M sodium citrate, IQF library screening and kinetics. Conditions: human, 37 °C, up to 30 min.
For data set [7], the target named is T2, caspase-3 (Homo sapiens, UniProt P42574).
T2 construct: made in house
T2 sequence (P42574 29-175 limits assumed): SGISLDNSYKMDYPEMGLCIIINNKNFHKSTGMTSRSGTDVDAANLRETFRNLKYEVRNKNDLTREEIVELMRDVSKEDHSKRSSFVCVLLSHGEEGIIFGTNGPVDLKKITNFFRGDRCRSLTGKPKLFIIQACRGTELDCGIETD
T2 sequence (P42574 176-277 limits assumed): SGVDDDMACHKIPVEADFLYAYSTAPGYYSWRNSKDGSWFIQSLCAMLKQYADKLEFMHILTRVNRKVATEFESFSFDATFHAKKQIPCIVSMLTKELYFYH
Briefly: IQF substrate hydrolysis kinetics with caspase-3. The data set is classed as biochemical. Conditions: MCA/Lys(DNP) substrate; caspase-3 3.0 nM; substrate 1-50 μM; Pipes buffer pH 7.2-7.4; 37 °C; ex 325/em 420 nm; mean of at least three, SD <10%. How it is done:
as §1
(§2) Caspase assays were performed in a buffer containing 20 mM Pipes, 0.1 M NaCl, 1 mM EDTA, 10 mM DTT, and 10% (w/v) sucrose at pH 7.2 to 7.4[61]. The buffer used for caspase-8, caspase-9 and caspase-10 was supplemented with 1 M sodium citrate. Each caspase was incubated with assay buffer for 30 min at 37 °C before the substrates were added. For caspase-3, the concentration of substrates containing ACC or MCA on the measurement plate ranged from 1 to 50 μM, and the enzyme concentration ranged from 1 to 3 nM. For caspase-7, the concentration of substrates containing ACC or MCA on the measurement plate ranged from 1 to 50 μM, and the enzyme concentration ranged from 10 to 30 nM. For caspase-8, the concentration of a substrates containing ACC or MCA on the measurement plate ranged from 4 to 80 μM, and the enzyme concentration ranged from 20 to 50 nM.
(§3) To obtain further insight into the caspase P1-P1′ preferences, we determined the kinetic parameters for selected IQF substrates. The kinetic analysis was performed in a similar manner to that described above (Substrate Kinetics). The buffers used for caspase-8, caspase-9, and caspase-10 were supplemented with 1.0 M sodium citrate. The enzyme concentrations were as follows: caspase-3, 6 nM; caspase-7, 25 nM; caspase-8, 30–60 nM; caspase-9, 20–140 nM; and caspase-10, 25–125 nM. When testing initiator caspases, the higher enzyme concentration was used for non-optimal LEHE/X substrates.

Data set [8] deals with T3, caspase-8 (Homo sapiens, UniProt Q14790).
T3 construct: made in house
T3 sequence (Q14790 217-374 limits assumed): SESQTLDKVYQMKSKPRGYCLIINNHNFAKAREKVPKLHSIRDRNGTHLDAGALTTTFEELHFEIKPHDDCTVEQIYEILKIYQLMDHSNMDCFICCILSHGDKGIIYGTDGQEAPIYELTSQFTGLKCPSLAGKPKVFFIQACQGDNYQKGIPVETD
T3 sequence (Q14790 385-479 limits assumed): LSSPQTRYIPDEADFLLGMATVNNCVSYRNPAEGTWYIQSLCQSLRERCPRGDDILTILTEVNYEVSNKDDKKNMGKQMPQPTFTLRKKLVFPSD
Briefly: IQF substrate hydrolysis kinetics with caspase-8. The data set is classed as biochemical. Conditions: MCA/Lys(DNP) substrate; caspase-8 50 nM; substrate 4-80 μM; Pipes buffer pH 7.2-7.4 with 1 M sodium citrate; 37 °C; ex 325/em 420 nm; mean of at least three, SD <10%. How it is done:
as §1, §2, §3

Data set [9] deals with T4, caspase-7 (Homo sapiens, UniProt P55210).
T4 construct: made in house
T4 sequence (P55210 24-198 limits assumed): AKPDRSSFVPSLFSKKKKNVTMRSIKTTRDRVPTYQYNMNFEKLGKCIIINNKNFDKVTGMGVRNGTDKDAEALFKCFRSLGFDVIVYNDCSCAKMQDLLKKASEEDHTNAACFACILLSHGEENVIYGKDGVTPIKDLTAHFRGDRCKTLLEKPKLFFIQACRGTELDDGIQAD
T4 sequence (P55210 207-303 limits assumed): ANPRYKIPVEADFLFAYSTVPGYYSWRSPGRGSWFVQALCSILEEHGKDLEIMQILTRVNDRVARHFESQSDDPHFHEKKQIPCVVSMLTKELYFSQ
Briefly: IQF substrate hydrolysis kinetics with caspase-7. Format: biochemical. Conditions: MCA/Lys(DNP) substrate; caspase-7 30 nM; substrate 1-50 μM; Pipes buffer pH 7.2-7.4; 37 °C; ex 325/em 420 nm; mean of at least three, SD <10%. How it is done:
as §1, §2, §3

Data set [10] has as its system trypsin. Kind of data set: IQF substrate hydrolysis kinetics with trypsin. The data set is classed as biochemical. Conditions: for kcat/Km values: ACC-GGLSX*IVK(DNP)G substrates, residue named = P1, trypsin. How it is done:
as §1, with “For the substrates with the new donor acceptor pair, ACC/DNP, the excitation wavelength was 355 nm, and the emission wavelength was 460 nm; for MCA/DNP, the corresponding values were 325 and 420 nm, respectively.” left out
Trypsin was assayed in a buffer containing 0.05 M Tris, 0.15 M NaCl, and 0.01% Triton X100 at pH 7.6. The enzyme was incubated with the assay buffer for 10 min at 37 °C prior to the substrate addition and the measurement. Eight internally quenched substrates were tested in the assay. The trypsin concentration for substrates containing Arg and Lys at P1 was 0.1 nM; for Arg(Me) substrates, the enzyme concentration was 30 nM; and for all other substrates, the enzyme concentration was 200 nM.

Where [11] appears, read: ACC/Lys(DNP) substrate, elastase 0.34 nM, ex 355/em 460 nm.
The mark [12] stands for this setting: ACC-GGLS(P1)*IVK(DNP)G-NH2 hydrolysis by trypsin, trypsin 0.1 nM (Arg, Lys), 30 nM (Arg(Me)), 200 nM (all others), 0.05 M Tris, 0.15 M NaCl, 0.01% Triton X100 pH 7.6, 37 °C, SD <10% (Arg/Lys), <15% (modified).
Where [13] appears, read: MCA/Lys(DNP) substrate, elastase 1.4 nM, ex 325/em 420 nm.

As for ACC-GDEVD/XKK(dnp)G-NH2 [DEVD/G], the cleaved bond entry in data set [1] and in data set [2] was “D-G” throughout.

As a reminder, the Km is the substrate concentration at which the rate is half of its maximum. Broadly, the kcat is the number of substrate molecules converted per active site and unit of time at saturation. In the case of “ACC-GAEPV*SLK(dnp)L-NH2 [ACC/Lys(DNP) internally quenched fluorescent substrate for human neutrophil elastase]”, in [3] (setting [11]), the Km came to 1.22 µM, the turnover number (kcat) was determined as 2.44 s⁻¹ and the kcat/KM is listed as 2 006 000 M^−1s^−1.

Regarding ACC-GDEVD/XKK(dnp)G-NH2 [DEVD/S], the cleaved bond result in data set [1] and in [2] was “D-S” throughout.

Consider ACC-GDEVE/XKK(dnp)G-NH2 [DEVE/S], for which the cleaved bond result in data set [1] and in [2] was “E-S” throughout.

ACC-GLEHE(G/A/S)KK(dnp)G-NH2 [LEHE/S]: the cleaved bond result in data set [4], in data set [5] and in data set [6] was “E-S” each time.

Take “MCA-GDEVD*GVK(dnp)D-NH2 [MCA/Lys(DNP) internally quenched fluorescent substrate for caspases]”: in [7], the Km was 4.67 µM, the kcat was 11.24 s⁻¹ and the kcat/KM was 2 359 000 M^−1s^−1. In addition, in [8], the Km worked out at 11.7 µM, the kcat amounted to 0.32 s⁻¹ and the kcat/KM is on record as 26 300 M^−1s^−1. For the same substance, in data set [9], the Km amounted to 6.17 µM, the kcat turned out to be 0.68 s⁻¹ and the kcat/KM is on record as 106 000 M^−1s^−1.

As to ACC-GLEHE(G/A/S)KK(dnp)G-NH2 [LEHE/G], the cleaved bond entry in data set [4], in data set [5] and in data set [6] was “E-G” in each case.

On to Lysine, for which, in [10] (setting [12]), the Km was 2.8 µM, the turnover number (kcat) worked out at 4.2 s⁻¹ and the kcat/KM is reported as 1 500 000 s^−1M^−1. In addition, the kcat/Km values in data set [10] is recorded as 1,500,000 M^−1s^−1.

On to ACC-GLEHD(G/A/S)KK(dnp)G-NH2 [LEHD/S], for which the cleaved bond result in data set [4], in data set [5] and in data set [6] was “D-S” throughout.

For the substance ACC-GLEHD(G/A/S)KK(dnp)G-NH2 [LEHD/A], the cleaved bond result in data set [4], in data set [5] and in data set [6] was “D-A” in each case.

Consider ACC-GLEHE(G/A/S)KK(dnp)G-NH2 [LEHE/A], for which the cleaved bond result in [4], in [5] and in [6] was “E-A” throughout.

Regarding Citrulline, in data set [10] (setting [12]), the Km is 90.3 µM, the catalytic constant (kcat) turned out to be 0.000359 s⁻¹ and the kcat/KM is recorded as 4 s^−1M^−1.

Arginine: in data set [10] (setting [12]), the Km amounted to 2.5 µM, the kcat was 24.1 s⁻¹ and the kcat/KM was 9 624 000 s^−1M^−1. In addition, in data set [10], the kcat/Km values is 9,624,000 M^−1s^−1.

On to ACC-GLEHD(G/A/S)KK(dnp)G-NH2 [LEHD/G], for which the cleaved bond result in data set [4], in data set [5] and in [6] was “D-G” each time.

On to Alanine, for which, in data set [10] (setting [12]), the KM entry is “No measurable hydrolysis”, the kcat result is given as “No measurable hydrolysis” and the kcat/KM entry is “No measurable hydrolysis”. The kcat/Km values result in data set [10] is “did not recognize”.

As to ACC-GDEVD/XKK(dnp)G-NH2 [DEVD/A], the cleaved bond result in data set [1] and in data set [2] was “D-A” throughout.

Regarding “MCA-GAEPV*SLK(dnp)L-NH2 [MCA/Lys(DNP) internally quenched fluorescent substrate for human neutrophil elastase]”, in data set [3] (setting [13]), the Michaelis constant (Km) was found to be 2.27 µM, the kcat is 2.58 s⁻¹ and the kcat/KM is reported as 1 147 219 M^−1s^−1.

With Ornithine, in [10] (setting [12]), the Km was 21.9 µM, the kcat came to 0.0017 s⁻¹ and the kcat/KM turned out to be 78 s^−1M^−1.
